Data taken from ChEMBL document CHEMBL3991601, “The target landscape of clinical kinase drugs” (Science, 2017).
Activity calls are given as the source filed them.

What was measured:
[1] = target: T1, Interleukin-1 receptor-associated kinase 4 (Homo sapiens, UniProt Q9NWZ3)
T1 sequence (Q9NWZ3 whole entry): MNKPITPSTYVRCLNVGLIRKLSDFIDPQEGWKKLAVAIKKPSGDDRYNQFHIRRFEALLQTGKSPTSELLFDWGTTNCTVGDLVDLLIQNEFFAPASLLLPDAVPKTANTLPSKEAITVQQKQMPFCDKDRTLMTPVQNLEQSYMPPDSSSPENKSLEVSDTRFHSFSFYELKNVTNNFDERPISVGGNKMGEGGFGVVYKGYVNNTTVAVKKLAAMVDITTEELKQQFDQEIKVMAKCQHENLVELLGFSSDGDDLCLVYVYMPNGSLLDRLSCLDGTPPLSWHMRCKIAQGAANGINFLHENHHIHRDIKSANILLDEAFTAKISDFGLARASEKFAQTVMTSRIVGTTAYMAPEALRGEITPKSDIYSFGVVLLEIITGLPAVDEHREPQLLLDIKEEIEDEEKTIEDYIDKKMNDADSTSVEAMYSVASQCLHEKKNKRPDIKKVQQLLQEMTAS

[2] = target: RAC-alpha serine/threonine-protein kinase (Homo sapiens, UniProt P31749)
[3] = target: Tyrosine-protein kinase FRK (Homo sapiens, UniProt P42685)
[4] = target: Proto-oncogene tyrosine-protein kinase receptor Ret (Homo sapiens, UniProt P07949)
[5] = target: T2, Dual specificity mitogen-activated protein kinase kinase 3 (Homo sapiens, UniProt P46734)
T2 sequence (P46734 whole entry): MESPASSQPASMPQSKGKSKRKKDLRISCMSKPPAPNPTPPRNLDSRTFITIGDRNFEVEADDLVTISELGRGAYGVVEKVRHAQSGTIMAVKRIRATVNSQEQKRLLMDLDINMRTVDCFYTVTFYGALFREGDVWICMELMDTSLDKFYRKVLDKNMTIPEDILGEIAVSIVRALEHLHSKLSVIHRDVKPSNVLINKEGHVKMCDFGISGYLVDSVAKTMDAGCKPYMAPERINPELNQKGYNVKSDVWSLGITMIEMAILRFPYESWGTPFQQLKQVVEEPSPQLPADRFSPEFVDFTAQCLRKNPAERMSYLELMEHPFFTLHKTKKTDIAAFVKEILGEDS

[6] = target: Elongation factor Tu, mitochondrial (Homo sapiens, UniProt P49411)
[7] = target: Mitogen-activated protein kinase kinase kinase 1 (Homo sapiens, UniProt Q13233)
[8] = target: S-adenosylmethionine synthase isoform type-2 (Homo sapiens, UniProt P31153)
[9] = target: Casein kinase I isoform epsilon (Homo sapiens, UniProt P49674)
[10] = target: T3, Serine/threonine-protein kinase A-Raf (Homo sapiens, UniProt P10398)
T3 sequence (P10398 whole entry): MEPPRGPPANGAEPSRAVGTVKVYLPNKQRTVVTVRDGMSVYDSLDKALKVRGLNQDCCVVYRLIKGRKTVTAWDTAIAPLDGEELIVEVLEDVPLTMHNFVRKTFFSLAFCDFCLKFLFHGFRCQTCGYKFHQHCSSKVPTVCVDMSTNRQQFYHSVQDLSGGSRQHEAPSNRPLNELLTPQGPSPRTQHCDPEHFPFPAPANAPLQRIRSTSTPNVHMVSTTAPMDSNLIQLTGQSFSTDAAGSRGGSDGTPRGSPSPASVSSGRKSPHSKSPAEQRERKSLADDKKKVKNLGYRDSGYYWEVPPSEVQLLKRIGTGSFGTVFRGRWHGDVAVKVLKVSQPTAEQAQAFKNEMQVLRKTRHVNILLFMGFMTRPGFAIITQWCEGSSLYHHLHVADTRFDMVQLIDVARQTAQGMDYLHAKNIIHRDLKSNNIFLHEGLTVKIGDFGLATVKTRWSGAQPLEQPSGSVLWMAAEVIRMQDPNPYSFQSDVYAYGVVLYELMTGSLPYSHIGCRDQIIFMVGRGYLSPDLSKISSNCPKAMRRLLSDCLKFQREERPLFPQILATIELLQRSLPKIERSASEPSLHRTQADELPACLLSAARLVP
Also: in the data inactive means no Kd found up to 30 µM.

Chain of Mitogen-activated protein kinase kinase kinase 1 (Q13233 whole entry, canonical isoform): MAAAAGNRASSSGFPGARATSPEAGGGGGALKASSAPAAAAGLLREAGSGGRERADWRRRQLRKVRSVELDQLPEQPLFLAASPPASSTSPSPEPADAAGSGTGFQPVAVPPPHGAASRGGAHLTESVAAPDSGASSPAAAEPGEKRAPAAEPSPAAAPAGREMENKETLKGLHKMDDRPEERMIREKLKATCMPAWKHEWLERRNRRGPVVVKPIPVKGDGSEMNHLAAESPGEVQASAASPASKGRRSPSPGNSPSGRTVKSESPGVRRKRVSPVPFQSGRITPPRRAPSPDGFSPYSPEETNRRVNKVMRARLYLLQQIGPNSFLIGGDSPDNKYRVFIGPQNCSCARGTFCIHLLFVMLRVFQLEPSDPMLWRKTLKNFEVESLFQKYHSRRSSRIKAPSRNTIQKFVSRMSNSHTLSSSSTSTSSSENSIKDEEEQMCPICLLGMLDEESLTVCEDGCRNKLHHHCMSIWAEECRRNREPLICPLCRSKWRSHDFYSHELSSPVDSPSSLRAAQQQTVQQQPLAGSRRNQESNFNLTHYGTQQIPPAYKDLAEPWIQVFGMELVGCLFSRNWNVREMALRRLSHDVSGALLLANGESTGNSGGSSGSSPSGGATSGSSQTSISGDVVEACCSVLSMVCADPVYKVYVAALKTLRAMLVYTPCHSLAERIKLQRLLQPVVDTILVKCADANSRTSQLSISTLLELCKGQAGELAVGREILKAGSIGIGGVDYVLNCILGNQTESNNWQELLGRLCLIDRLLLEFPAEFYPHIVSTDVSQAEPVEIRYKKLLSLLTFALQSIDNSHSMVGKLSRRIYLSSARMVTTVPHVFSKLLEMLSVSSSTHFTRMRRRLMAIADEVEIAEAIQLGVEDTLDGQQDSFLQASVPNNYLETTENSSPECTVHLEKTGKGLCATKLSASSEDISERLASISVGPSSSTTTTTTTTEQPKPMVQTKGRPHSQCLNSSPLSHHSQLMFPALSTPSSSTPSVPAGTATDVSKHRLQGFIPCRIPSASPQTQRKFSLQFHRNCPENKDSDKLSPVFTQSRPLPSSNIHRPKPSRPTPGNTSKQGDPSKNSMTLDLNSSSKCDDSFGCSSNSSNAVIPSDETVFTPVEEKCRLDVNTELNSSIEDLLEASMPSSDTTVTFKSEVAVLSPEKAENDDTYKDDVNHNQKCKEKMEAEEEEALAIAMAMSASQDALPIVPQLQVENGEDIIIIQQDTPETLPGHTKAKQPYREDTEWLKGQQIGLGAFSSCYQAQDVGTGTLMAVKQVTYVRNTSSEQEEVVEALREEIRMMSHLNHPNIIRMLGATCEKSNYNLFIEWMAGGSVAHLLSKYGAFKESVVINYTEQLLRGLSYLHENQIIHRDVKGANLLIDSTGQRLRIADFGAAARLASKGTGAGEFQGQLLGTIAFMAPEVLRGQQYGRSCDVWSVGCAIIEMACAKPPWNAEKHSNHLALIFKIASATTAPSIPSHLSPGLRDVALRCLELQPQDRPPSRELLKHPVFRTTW
Chain of Tyrosine-protein kinase FRK (P42685 whole entry): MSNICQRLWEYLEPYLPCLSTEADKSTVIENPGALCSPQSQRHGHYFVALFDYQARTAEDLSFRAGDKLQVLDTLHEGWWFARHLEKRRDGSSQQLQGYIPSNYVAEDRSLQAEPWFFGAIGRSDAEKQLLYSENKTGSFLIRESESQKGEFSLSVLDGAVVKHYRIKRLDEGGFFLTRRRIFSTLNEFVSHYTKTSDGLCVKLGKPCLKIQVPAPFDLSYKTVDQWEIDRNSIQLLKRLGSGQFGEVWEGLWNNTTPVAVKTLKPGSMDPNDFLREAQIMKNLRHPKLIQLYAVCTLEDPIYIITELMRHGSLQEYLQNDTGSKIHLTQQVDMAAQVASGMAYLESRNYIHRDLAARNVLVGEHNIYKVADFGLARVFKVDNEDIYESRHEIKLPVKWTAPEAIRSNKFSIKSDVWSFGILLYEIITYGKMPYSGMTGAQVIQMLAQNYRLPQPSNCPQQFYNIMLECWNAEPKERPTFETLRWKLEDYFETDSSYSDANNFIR
Chain of Proto-oncogene tyrosine-protein kinase receptor Ret (P07949 whole entry): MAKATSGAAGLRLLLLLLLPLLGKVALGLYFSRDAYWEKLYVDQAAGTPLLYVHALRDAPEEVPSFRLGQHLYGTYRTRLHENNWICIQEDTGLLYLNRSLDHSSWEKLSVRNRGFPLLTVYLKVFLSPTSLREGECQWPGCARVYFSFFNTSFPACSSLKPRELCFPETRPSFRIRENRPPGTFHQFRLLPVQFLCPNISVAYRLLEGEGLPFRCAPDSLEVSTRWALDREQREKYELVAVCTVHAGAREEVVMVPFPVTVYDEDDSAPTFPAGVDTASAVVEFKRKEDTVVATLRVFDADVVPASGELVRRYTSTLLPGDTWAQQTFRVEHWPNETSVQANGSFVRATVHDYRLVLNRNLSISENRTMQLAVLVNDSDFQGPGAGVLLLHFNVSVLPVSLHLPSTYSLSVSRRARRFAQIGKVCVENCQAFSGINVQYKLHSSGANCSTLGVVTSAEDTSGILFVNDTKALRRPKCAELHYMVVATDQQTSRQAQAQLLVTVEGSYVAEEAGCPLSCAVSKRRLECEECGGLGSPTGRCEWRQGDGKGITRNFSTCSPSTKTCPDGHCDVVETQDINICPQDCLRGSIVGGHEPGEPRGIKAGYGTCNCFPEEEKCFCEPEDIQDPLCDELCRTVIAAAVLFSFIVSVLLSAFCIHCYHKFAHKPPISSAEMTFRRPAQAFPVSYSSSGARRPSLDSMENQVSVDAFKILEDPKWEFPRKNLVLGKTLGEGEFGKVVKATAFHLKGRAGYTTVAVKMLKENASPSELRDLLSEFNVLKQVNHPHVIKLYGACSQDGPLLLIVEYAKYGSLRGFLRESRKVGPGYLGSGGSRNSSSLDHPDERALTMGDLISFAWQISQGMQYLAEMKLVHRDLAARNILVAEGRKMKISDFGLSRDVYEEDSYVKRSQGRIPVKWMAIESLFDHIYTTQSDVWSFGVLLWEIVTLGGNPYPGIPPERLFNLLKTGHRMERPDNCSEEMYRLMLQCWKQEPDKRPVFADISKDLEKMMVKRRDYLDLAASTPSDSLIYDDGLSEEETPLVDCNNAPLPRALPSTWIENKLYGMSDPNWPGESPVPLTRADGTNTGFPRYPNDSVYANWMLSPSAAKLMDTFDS
Chain of Casein kinase I isoform epsilon (P49674 whole entry, canonical isoform): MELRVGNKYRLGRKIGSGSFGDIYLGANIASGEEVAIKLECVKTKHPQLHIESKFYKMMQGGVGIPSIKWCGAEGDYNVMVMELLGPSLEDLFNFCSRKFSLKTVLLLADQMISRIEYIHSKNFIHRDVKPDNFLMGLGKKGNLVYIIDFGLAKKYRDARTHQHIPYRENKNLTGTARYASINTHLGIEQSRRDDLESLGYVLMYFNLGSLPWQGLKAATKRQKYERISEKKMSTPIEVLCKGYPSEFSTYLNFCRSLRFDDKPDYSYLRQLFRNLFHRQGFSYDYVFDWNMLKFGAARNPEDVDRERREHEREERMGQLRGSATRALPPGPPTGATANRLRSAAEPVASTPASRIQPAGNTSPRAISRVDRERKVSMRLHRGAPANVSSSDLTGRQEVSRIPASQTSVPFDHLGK
Chain of S-adenosylmethionine synthase isoform type-2 (P31153 whole entry, canonical isoform): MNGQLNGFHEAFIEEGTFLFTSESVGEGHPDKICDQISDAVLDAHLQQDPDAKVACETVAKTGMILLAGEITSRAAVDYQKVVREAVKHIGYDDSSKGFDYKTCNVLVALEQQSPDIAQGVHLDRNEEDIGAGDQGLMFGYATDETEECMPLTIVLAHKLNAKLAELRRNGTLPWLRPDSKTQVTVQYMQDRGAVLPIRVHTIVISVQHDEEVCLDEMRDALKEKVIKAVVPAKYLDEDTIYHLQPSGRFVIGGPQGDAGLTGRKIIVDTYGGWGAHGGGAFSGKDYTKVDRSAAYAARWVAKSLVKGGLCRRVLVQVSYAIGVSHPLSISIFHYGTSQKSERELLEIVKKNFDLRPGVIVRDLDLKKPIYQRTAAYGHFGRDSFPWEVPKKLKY
Chain of RAC-alpha serine/threonine-protein kinase (P31749 whole entry): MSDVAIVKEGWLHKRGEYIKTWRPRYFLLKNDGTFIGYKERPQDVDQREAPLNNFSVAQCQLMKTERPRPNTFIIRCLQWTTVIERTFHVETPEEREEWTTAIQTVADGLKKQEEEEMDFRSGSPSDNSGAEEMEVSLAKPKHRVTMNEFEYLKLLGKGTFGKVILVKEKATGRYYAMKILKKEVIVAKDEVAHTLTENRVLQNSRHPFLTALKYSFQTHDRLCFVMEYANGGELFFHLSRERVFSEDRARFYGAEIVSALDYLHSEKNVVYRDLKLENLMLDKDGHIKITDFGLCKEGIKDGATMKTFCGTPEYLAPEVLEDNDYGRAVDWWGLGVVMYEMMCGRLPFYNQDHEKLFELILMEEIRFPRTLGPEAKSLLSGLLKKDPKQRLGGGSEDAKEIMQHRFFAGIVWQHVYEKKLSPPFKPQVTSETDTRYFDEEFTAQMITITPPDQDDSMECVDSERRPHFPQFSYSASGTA

SMILES	Kd [1]	Kd [2]	Kd [3]	Kd [4]	Kd [5]	Kd [6]	Kd [7]	Kd [8]	Kd [9]	Kd [10]
C[C@@H](Oc1cc(C(=O)Nc2ccc(C(=O)N3CCN(C)CC3)cc2)nnc1N)c1c(Cl)ccc(F)c1Cl	> 30 µM (inactive)	> 30 µM (inactive)	> 30 µM (inactive)	> 30 µM (inactive)	> 30 µM (inactive)	> 30 µM (inactive)	2.19 µM (active)	> 30 µM (inactive)	> 30 µM (inactive)	> 30 µM (inactive)
C[C@H]1CNCCCN1S(=O)(=O)c1cccc2cncc(F)c12	> 30 µM (inactive)	> 30 µM (inactive)	> 30 µM (inactive)	> 30 µM (inactive)	3.08 µM (active)	> 30 µM (inactive)	> 30 µM (inactive)	> 30 µM (inactive)	> 30 µM (inactive)	> 30 µM (inactive)
CCNC(=O)C#Cc1ccc2c(c1)NC(=O)/C2=C(\Nc1ccc(CN(C)C)cc1)c1ccccc1	> 30 µM (inactive)	> 30 µM (inactive)	0.736 µM (active)	0.227 µM (active)	> 30 µM (inactive)	> 30 µM (inactive)	> 30 µM (inactive)	> 30 µM (inactive)	> 30 µM (inactive)	–
C=CC(=O)N1CCC[C@H](n2c(=O)n(-c3ccc(Oc4ccccc4)cc3)c3c(N)ncnc32)C1	> 30 µM (inactive)	> 30 µM (inactive)	> 30 µM (inactive)	> 30 µM (inactive)	> 30 µM (inactive)	> 30 µM (inactive)	> 30 µM (inactive)	> 30 µM (inactive)	> 30 µM (inactive)	–
Cc1nc2cc(-c3nn(C(C)C)c4ncnc(N)c34)ccc2o1	> 30 µM (inactive)	> 30 µM (inactive)	> 30 µM (inactive)	1.6 µM (active)	> 30 µM (inactive)	> 30 µM (inactive)	1.05 µM (active)	> 30 µM (inactive)	0.158 µM (active)	> 30 µM (inactive)
COCc1c(-c2ccc(NC(=O)Nc3cc(C(F)(F)F)ccc3F)c(F)c2)c2c(N)ncnn2c1CN1CCOCC1	> 30 µM (inactive)	> 30 µM (inactive)	1.86 µM (active)	0.093 µM (active)	> 30 µM (inactive)	> 30 µM (inactive)	> 30 µM (inactive)	> 30 µM (inactive)	> 30 µM (inactive)	> 30 µM (inactive)
Cc1nc(NC(=O)N2CCC[C@H]2C(N)=O)sc1-c1ccnc(C(C)(C)C(F)(F)F)c1 [ALPELISIB]	> 30 µM (inactive)	> 30 µM (inactive)	> 30 µM (inactive)	> 30 µM (inactive)	> 30 µM (inactive)	> 30 µM (inactive)	> 30 µM (inactive)	> 30 µM (inactive)	> 30 µM (inactive)	> 30 µM (inactive)
C=CC(=O)Nc1cc2c(Nc3ccc(F)c(Cl)c3)ncnc2cc1C#CC(C)(C)N1CCN(C)CC1 [AV-412 FREE BASE]	> 30 µM (inactive)	> 30 µM (inactive)	> 30 µM (inactive)	> 30 µM (inactive)	> 30 µM (inactive)	> 30 µM (inactive)	7.96 µM (active)	> 30 µM (inactive)	> 30 µM (inactive)	> 30 µM (inactive)
COc1cc([C@@H]2c3cc4c(cc3[C@H](O)[C@H]3COC(=O)[C@@H]23)OCO4)cc(OC)c1OC [AXL-1717]	> 30 µM (inactive)	> 30 µM (inactive)	> 30 µM (inactive)	> 30 µM (inactive)	> 30 µM (inactive)	> 30 µM (inactive)	> 30 µM (inactive)	> 30 µM (inactive)	> 30 µM (inactive)	> 30 µM (inactive)
Cn1cnc2c(F)c(Nc3ccc(Br)cc3F)c(C(=O)NOCCO)cc21 [BINIMETINIB]	> 30 µM (inactive)	> 30 µM (inactive)	> 30 µM (inactive)	> 30 µM (inactive)	> 30 µM (inactive)	> 30 µM (inactive)	> 30 µM (inactive)	> 30 µM (inactive)	> 30 µM (inactive)	> 30 µM (inactive)
CCn1c(C(=O)N(C2CC2)C2CC2)cc2c3c(ncn3C)c(Nc3cc(C)n(C)n3)nc21 [BMS-911543]	> 30 µM (inactive)	> 30 µM (inactive)	> 30 µM (inactive)	> 30 µM (inactive)	> 30 µM (inactive)	> 30 µM (inactive)	> 30 µM (inactive)	> 30 µM (inactive)	> 30 µM (inactive)	> 30 µM (inactive)

Other lines, results leading:

Kd [1]	Kd [2]	Kd [3]	Kd [4]	Kd [5]	Kd [6]	Kd [7]	Kd [8]	Kd [9]	Kd [10]	SMILES
> 30 µM (inactive)	> 30 µM (inactive)	> 30 µM (inactive)	> 30 µM (inactive)	> 30 µM (inactive)	> 30 µM (inactive)	> 30 µM (inactive)	> 30 µM (inactive)	> 30 µM (inactive)	> 30 µM (inactive)	COc1c(OCCCN2CCOCC2)ccc2c1N=C(NC(=O)c1cnc(N)nc1)N1CCN=C21 [COPANLISIB]
> 30 µM (inactive)	> 30 µM (inactive)	> 30 µM (inactive)	> 30 µM (inactive)	> 30 µM (inactive)	> 30 µM (inactive)	> 30 µM (inactive)	> 30 µM (inactive)	> 30 µM (inactive)	> 30 µM (inactive)	COCC(=O)NC/C=C/c1ccc2ncnc(Nc3ccc(Oc4ccc(C)nc4)c(C)c3)c2c1 [CP-724714]
> 30 µM (inactive)	> 30 µM (inactive)	> 30 µM (inactive)	0.783 µM (active)	> 30 µM (inactive)	> 30 µM (inactive)	> 30 µM (inactive)	> 30 µM (inactive)	> 30 µM (inactive)	–	Cc1nc2cc(-n3ncc(C(=O)c4cc5ccccc5[nH]4)c3N)ccc2[nH]1 [FGFR INHIBITOR DEBIO 1347]
> 30 µM (inactive)	> 30 µM (inactive)	> 30 µM (inactive)	0.067 µM (active)	> 30 µM (inactive)	> 30 µM (inactive)	> 30 µM (inactive)	–	> 30 µM (inactive)	> 30 µM (inactive)	CCn1cc(-c2ccnc3[nH]c(-c4cccc(CN(C)C)c4)cc23)c(-c2ccc(NC(=O)N(C)C)cc2)n1 [GSK-1070916]
26.1 µM (active)	> 30 µM (inactive)	3.02 µM (active)	1.32 µM (active)	> 30 µM (inactive)	> 30 µM (inactive)	> 30 µM (inactive)	> 30 µM (inactive)	–	> 30 µM (inactive)	CNC(=O)c1nn(C)c2c1C(C)(C)Cc1cnc(Nc3ccc(N4CCN(C)CC4)cc3)nc1-2 [MILCICLIB]
> 30 µM (inactive)	> 30 µM (inactive)	> 30 µM (inactive)	> 30 µM (inactive)	> 30 µM (inactive)	> 30 µM (inactive)	> 30 µM (inactive)	–	> 30 µM (inactive)	> 30 µM (inactive)	FC(F)(F)c1ccc(/C=C/c2nc(COc3ccc(CCCCn4ccnn4)cc3)co2)cc1 [MUBRITINIB]
> 30 µM (inactive)	> 30 µM (inactive)	> 30 µM (inactive)	> 30 µM (inactive)	> 30 µM (inactive)	> 30 µM (inactive)	> 30 µM (inactive)	–	> 30 µM (inactive)	> 30 µM (inactive)	CO[C@H]1C[C@@H]2CC[C@@H](C)[C@@](O)(O2)C(=O)C(=O)N2CCCC[C@H]2C(=O)O[C@H]([C@H](C)C[C@@H]2CC[C@@H](OP(C)(C)=O)[C@H](OC)C2)CC(=O)[C@H](C)/C=C(\C)[C@@H](O)[C@@H](OC)C(=O)[C@H](C)C[C@H](C)/C=C/C=C/C=C/1C [RIDAFOROLIMUS]
